Consider one molecule from patent US11505556B2, “Halogenated derivatives of morphinans and uses thereof” (Xalud Therapeutics, Inc., priority 2017, dated 2022).

The test system of one series is BV-2 cells. The series is described as follows: Cell viability of BV-2 cells. In kind it is cell-based, mouse. Particulars: BV2 cells, FIGS. 7, 8B to 8D.
In the next series the target is T1, Adrenergic α2A (Homo sapiens, UniProt P08913).
T1 sequence (P08913 1-465): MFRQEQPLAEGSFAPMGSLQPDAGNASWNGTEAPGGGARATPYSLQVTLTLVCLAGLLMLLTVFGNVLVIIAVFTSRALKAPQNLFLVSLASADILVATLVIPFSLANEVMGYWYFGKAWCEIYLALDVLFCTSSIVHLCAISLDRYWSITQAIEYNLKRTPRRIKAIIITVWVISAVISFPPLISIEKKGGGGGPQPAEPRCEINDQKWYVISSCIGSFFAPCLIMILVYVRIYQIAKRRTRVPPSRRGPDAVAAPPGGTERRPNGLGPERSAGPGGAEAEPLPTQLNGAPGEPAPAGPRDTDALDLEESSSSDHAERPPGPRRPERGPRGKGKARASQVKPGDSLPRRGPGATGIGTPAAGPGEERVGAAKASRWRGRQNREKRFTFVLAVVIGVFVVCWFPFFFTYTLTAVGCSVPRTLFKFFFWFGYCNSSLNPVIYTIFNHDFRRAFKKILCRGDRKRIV
Kind of series: Off-target screening. The class given is binding. From the text:
(§1) In addition to the animal studies presented above in Examples 1-9, the results of in vitro testing of several of the compounds (i.e., XT-203, XT-204, and XT-206 through XT-217) are shown in Table 5 and Table 6. […]. Nine additional compounds had two or fewer off-target hits in the screening. […] These compounds spanned all of the tested N-modification classes. […]. Thus, the medicinal chemistry approach taken in this series of fluorinated compounds can yield low off-target activity and longer metabolic lifetime while preserving TLR4 antagonism. It is appreciated that further development of compounds in this class, using techniques known to those skilled in the art, may yield additional compounds with desirable pharmacologic and toxicologic characteristics.

Another series relates to Sodium channel site 2. The series is described as follows: Off-target screening. In kind it is binding.
Source text: as §1

A short description of series [1]: Hepatocyte elimination of parent compound, spread across species. The class given is in vitro ADME. Particulars: mouse, rat, dog, monkey, human, hepatocytes; lowest to highest species value; read-out: range of hepatocyte elimination half-life values across species. Here is the method: Hepatocyte Elimination: (+)-NTX, AK-17 and XT-203 were incubated with cultured hepatocytes from the species listed in FIG. 9 and Table 4, and samples of the culture supernatant were collected over time. Samples were concentrated by nitrogen drying followed by reconstitution with 40% methanol for LC/MS analysis The data points were analyzed using the WinNonLin pharmacokinetics software package, and a half-life was determined that describes the rate of parent elimination. […].
as §1

Series [2] can be described thus: in vitro. Particulars: mouse, hepatocytes.
Series [3] can be described thus: in vitro. Particulars: rat, cultured hepatocytes.
The nature of series [4]: in vitro. Particulars: dog, cultured hepatocytes.
Series [5] can be described thus: in vitro. Particulars: human, cultured hepatocytes.

A value given as a limit tells only on which side of the number the result lay.

Procedure for BV-2 cells: Cell viability was also measured by a standard assay, e.g., measurement of the release of cytoplasm-resident enzymes in the tissue culture supernatant or media to detect cell loss/lysis/rupture.

With `COc1ccc2c3c1O[C@@H]1C(F)CCC4[C@H](C2)N(CC2CC2)CC[C@]341` (some centres unmarked) [XT-203], in the series on BV-2 cells, the “cell viability” value is listed as “good viability”. Besides, the “% Inhibition at 10 μM, Adrenergic α2A” value amounted to 99% at Adrenergic α2A and 64% on Adrenergic α2A (listed as XT 203, 10 µM). The inhibition at 1 µM at Adrenergic α2A (read-out: % inhibition at 1 μM (retest), Adrenergic α2A, 1 μM) was < 50%. Further, the “% Inhibition at 10 μM, Sodium channel site 2” value is on record as 64% in the series on Sodium channel site 2 (10 µM) and 54% with Sodium channel site 2 (listed as XT 203, 10 µM). For the same molecule, the half-life in series [1] was 13.2 to 54.3 min; in the series “in vitro [2]”, ~27 min; in the series “in vitro [3]”, 13.2 min; in “in vitro [4]”, 24.3 min; in “in vitro [5]” it was 54.3 min.

In general, % Inhibition refers to the drop in the measured response relative to a control, in per cent. The inhibition is the relative decrease from the control value, in per cent. The term half-life denotes how long it takes for the measured level to halve.
